Assay results from patent US20220233688A1, “ADJUVANTS FOR IMMUNOGENIC COMPOSITIONS AND METHODS OF USE THEREOF” (UNIVERSITY OF MARYLAND, BALTIMORE, priority 2019, published 2022).
Entries after “also recorded” stand apart in the source; their conditions may differ.

What was measured:
[1] = tested on: Cal/09 rHA; set-up: species or system BALB/c mice; conditions: mouse, in vivo
[2] = tested on: A/Netherlands/602/2009 (H1N1) (NL/09) virus; format: in vivo, BALB/c mice; conditions: 7 days
[3] = tested on: A/Netherlands/602/2009 (H1N1) (NL/09) virus; test: Lung tissue histology inflammation scoring after NL/09 challenge; format: in vivo, BALB/c mice; conditions: 0.04 ug rHA alone or with 100 ug Alum or 50 ug PHAD/BECC, prime-boost
Experimental: Staining of lung tissue was performed by the UMB EM and Histology Laboratory to assess any histological signs and potential clearing of viral infection. 4% Paraformaldehyde-fixed (Sigma-Aldrich, St Louis, Mo.) lungs were embedded in paraffin and sectioned before staining with haematoxylin and eosin (H&E). Representative slides were selected to most accurately portray the condition of the lungs within each group of vaccinated mice. Pathology scoring was performed by Dr (LT) Robert Kitz, Anatomic Pathologist, Walter Reed National Military Medical Center, Bethesda, Md. Lung sections from each mouse were scored based on overall inflammation using the following scoring parameters (group scores averaged): 0=no inflammation, 1=scant inflammation (<5% multifocal or one small focus); 2=prominent inflammation, <25% parenchyma; 3=prominent inflammation, 25-50% parenchyma; 4=diffuse inflammation, 50-75% parenchyma; 5=diffuse inflammation, >75% parenchyma.

[4] = tested on: RSV A2; format: in vivo, Balb/c mice; conditions: IM days 0 and 21, RSV A2 challenge, lung four days after challenge (day 39)
[5] = tested on: HPV16-L1 VLPs; set-up: species or system BALB/c mice; conditions: mouse, in vivo
[6] = reported in literature (21); cited from earlier work

phosphorylated hexa-acyl disaccharide [PHAD]
Day 28 total serum IgG antibody titer [1]: significant difference between the HA alone and PHAD groups; also recorded: somewhat higher
HA-specific IgG2a titer [1]: significantly higher than sham
average weight loss [2]: 10%
histological inflammation scoring of lung [3]: low inflammation scores with minimal bronchiolar or periarterial inflammation
protection by lung viral titers [4]: full protection in the lower respiratory tract
L1 ELISA Ab levels [5]: greater L1 ELISA Ab levels compared to alum alone

CCCCCCCCCCCCCC(=O)O[C@H](CCCCCCCCCCC)CC(=O)O[C@@H]1[C@@H](NC(=O)C[C@H](CCCCCCCCCCC)OC(=O)CCCCCCCCCCCCC)[C@H](OC[C@H]2O[C@H](O)[C@H](NC(=O)C[C@H](O)CCCCCCCCCCC)[C@@H](OC(=O)C[C@H](O)CCCCCCCCCCC)[C@@H]2O)O[C@H](CO)[C@H]1OP(=O)(O)O [GLA, glucopyranosyl lipid-A]
particle size of aqueous formulation [6]: 90 nm
